Data: patent US11731942B1, “3-substituted quinolin-2-one compounds as antibacterial agents” (KING FAISAL UNIVERSITY, priority 2023, dated 2023)
In brackets after ≈: the same amount, converted by molar mass. Where two headings read alike, the source gives them in different places.

Key:
[1] = system: Staphylococcus aureus ATCC BAA-1556 (MERSA resistant); experiment: In vitro antibacterial activity (CLSI M07-A10 dilution), MIC; assay type: cell-based; details: ATCCBAA1556
[2] = system: Escherichia coli MTCC 443; experiment: as above; assay type: cell-based; details: MTCC443
[3] = system: Klebsiella pneumonia MTCC 618; experiment: as above; assay type: cell-based; details: Klebsiella pneumoniae, MTCC618
[4] = system: Enterococcus faecium ATCC 51559 (VRE resistant); experiment: as above; assay type: cell-based
[5] = system: Pseudomonas aeruginosa MTCC 741; experiment: as above; assay type: cell-based; details: MTCC741
[6] = system: Bacillus subtilis MTCC 441; experiment: as above; assay type: cell-based; details: MTCC441
[7] = system: Staphylococcus epidermidis; experiment: as above; assay type: cell-based
[8] = system: Enterococcus faecium ATCC 35667; experiment: as above; assay type: cell-based; details: ATCC35667
[9] = system: Staphylococcus aureus ATCC 29213; experiment: as above; assay type: cell-based; details: ATCC29213
[10] = system: H37Rv type of M. tuberculosis strains; experiment: Anti-tubercular alamar blue microplate MIC; assay type: cell-based; details: 168 h, mycobacterium tuberculosis H37Rv strain, 7 days at 37° C., read-out: anti-mycobacterial activity (MIC)
E. coli DNA Gyrase = biological target: T1, E. coli DNA Gyrase (Escherichia coli, UniProt P0AES4+P0AES6); experiment: Inspiralis DNA gyrase inhibition assay; assay type: biochemical
T1 construct: purchased Inspiralis
Protocol: Inhibitory potencies were investigated utilizing the Inspiralis assay on streptavidin-coated 96-well microtiter plates. First, the plates were rehydrated with buffer (20 mM Tris-HCl with pH 7.6, 0.01% w/v BSA, 0.05% v/v Tween 20, 137 mM NaCl) and the biotinylated oligonucleotide was then immobilized. After washing off the unbound oligonucleotide, the enzyme test was performed. The reaction volume of 30 μL in buffer (35 mM Tris×HCl with pH 7.5, 4 mM MgCl2, 24 mM KCl, 2 mM DTT, 1.8 mM spermidine, 1 mM ATP, 6.5% w/v glycerol, 0.1 mg/mL albumin) contained 1.5 U of DNA gyrase from E. coli, 0.75 μg of relaxed pNO1 plasmid, and 3 μL solution of the inhibitor in 10% DMSO and 0.008% Tween 20. Reaction solutions were incubated at 37° C. for 30 min. After that, the TF buffer (50 mM NaOAc with pH 5.0, 50 mM NaCl and 50 mM MgCl2) was added to terminate the enzymatic reaction. After additional incubation for 30 min at rt, during which biotinoligonucleotide-plasmid triplex was formed, the unbound plasmid was washed off using TF buffer and SybrGOLD in T10 buffer (10 mM Tris HCl with pH 8.0 and 1 mM EDTA) was added. The fluorescence was measured with a microplate reader (BioTek Synergy H4, excitation: 485 nm, emission: 535 nm). Initial screening was done at 100 or 10 μM concentration of inhibitors. […] GraphPad Prism software was used to calculate the IC50 values. […]

T1 sequence (P0AES4 whole entry, one chain of several): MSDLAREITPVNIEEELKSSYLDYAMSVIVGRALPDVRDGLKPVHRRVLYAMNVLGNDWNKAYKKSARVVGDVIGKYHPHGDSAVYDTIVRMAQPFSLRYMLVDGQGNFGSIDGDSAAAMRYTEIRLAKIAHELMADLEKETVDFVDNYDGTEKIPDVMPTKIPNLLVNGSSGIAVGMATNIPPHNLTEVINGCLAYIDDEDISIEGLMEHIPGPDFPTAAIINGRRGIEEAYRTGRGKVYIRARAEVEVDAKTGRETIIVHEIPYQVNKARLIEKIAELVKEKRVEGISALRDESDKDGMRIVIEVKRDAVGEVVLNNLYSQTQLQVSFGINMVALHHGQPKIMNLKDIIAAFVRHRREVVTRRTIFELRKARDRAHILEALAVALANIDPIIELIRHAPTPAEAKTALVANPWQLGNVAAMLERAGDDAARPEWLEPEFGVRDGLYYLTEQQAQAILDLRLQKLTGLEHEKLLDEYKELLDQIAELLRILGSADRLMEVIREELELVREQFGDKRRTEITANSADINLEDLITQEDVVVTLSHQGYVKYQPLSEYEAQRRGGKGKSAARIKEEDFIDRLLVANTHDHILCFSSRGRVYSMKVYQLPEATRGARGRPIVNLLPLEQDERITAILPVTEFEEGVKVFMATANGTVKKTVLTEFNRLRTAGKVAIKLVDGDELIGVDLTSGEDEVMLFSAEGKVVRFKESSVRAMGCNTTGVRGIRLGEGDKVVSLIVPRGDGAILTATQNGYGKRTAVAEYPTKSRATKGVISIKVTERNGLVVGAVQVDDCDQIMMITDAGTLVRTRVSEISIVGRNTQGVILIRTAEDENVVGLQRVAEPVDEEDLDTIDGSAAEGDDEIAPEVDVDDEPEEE

Compound | MIC ([1]; Staphylococcus aureus) | MIC ([2]; Escherichia coli) | MIC [3] | MIC ([4]; Enterococcus faecium) | MIC ([5]; Pseudomonas aeruginosa) | MIC ([6]; Bacillus subtilis) | MIC [7] | MIC ([8]; Enterococcus faecium) | MIC ([9]; Staphylococcus aureus) | MIC ([1]; Staphylococcus aureus ATCC BAA-1556 (MERSA resistant), read-out: MIC) | MIC ([2]; Escherichia coli MTCC 443, read-out: MIC) | MIC [10] | MIC ([3]; Klebsiella pneumonia MTCC 618, read-out: MIC) | MIC ([4]; Enterococcus faecium ATCC 51559 (VRE resistant), read-out: MIC) | MIC ([5]; Pseudomonas aeruginosa MTCC 741, read-out: MIC) | IC50 (E. coli DNA Gyrase) | MIC ([6]; Bacillus subtilis MTCC 441, read-out: MIC) | MIC ([7]; read-out: MIC) | MIC ([8]; Enterococcus faecium ATCC 35667, read-out: MIC) | MIC ([9]; Staphylococcus aureus ATCC 29213, read-out: MIC)
CN[C@H](CC(C)C)C(=O)N[C@H]1C(=O)N[C@@H](CC(N)=O)C(=O)N[C@H]2C(=O)N[C@H]3C(=O)N[C@H](C(=O)N[C@H](C(=O)O)c4cc(O)cc(O)c4-c4cc3ccc4O)[C@H](O)c3ccc(c(Cl)c3)Oc3cc2cc(c3O[C@@H]2O[C@H](CO)[C@@H](O)[C@H](O)[C@H]2O[C@H]2C[C@](C)(N)[C@H](O)[C@H](C)O2)Oc2ccc(cc2Cl)[C@H]1O [Vancomycin, reference compound] | 1 µg/mL (≈ 0.69 µM) | > 128 µg/mL | > 128 µg/mL | > 128 µg/mL | > 128 µg/mL | 0.5 µg/mL (≈ 0.345 µM) | 1 µg/mL (≈ 0.69 µM) | 0.5 µg/mL (≈ 0.345 µM) | 1 µg/mL (≈ 0.69 µM) | – | – | – | – | – | – | – | – | – | – | –
CCCCCN(C)Cc1cc(C(=O)O)ccc1/C=C/C(=O)c1cc2cc(F)cc(NC)c2[nH]c1=O [Compound 7, (E)-4-(3-(6-fluoro-8-(methylamino)-2-oxo-1,2-dihydroquinolin-3-yl)-3-oxoprop-1-en-1-yl)-3-((methyl(pentyl)amino)methyl)benzoic acid] | – | – | – | – | – | – | – | – | – | 0.5 µg/mL (≈ 1.04 µM) | 1 µg/mL (≈ 2.09 µM) | 4 µg/mL (≈ 8.34 µM) | 0.5 µg/mL (≈ 1.04 µM) | 0.25 µg/mL (≈ 0.521 µM) | 0.25 µg/mL (≈ 0.521 µM) | 12 nM | 0.25 µg/mL (≈ 0.521 µM) | 0.5 µg/mL (≈ 1.04 µM) | 0.25 µg/mL (≈ 0.521 µM) | 0.5 µg/mL (≈ 1.04 µM)
